Assay results reported in patent publication EP4268823A1, “COMPOUND FOR TREATING NEUROINFLAMMATION” (Universitätsklinikum Hamburg-Eppendorf, priority 2022, dated 2023).

Molecular target: T1, G9a (Mus musculus, UniProt Q9Z148)
T1 construct: UNC0642 pre-treated primary neuronal cultures compared to respective controls; endogenous in cells; host or cells: primary mouse cortical neuronal cultures (C57BL/6J embryos)
T1 sequence (Q9Z148 1-1263): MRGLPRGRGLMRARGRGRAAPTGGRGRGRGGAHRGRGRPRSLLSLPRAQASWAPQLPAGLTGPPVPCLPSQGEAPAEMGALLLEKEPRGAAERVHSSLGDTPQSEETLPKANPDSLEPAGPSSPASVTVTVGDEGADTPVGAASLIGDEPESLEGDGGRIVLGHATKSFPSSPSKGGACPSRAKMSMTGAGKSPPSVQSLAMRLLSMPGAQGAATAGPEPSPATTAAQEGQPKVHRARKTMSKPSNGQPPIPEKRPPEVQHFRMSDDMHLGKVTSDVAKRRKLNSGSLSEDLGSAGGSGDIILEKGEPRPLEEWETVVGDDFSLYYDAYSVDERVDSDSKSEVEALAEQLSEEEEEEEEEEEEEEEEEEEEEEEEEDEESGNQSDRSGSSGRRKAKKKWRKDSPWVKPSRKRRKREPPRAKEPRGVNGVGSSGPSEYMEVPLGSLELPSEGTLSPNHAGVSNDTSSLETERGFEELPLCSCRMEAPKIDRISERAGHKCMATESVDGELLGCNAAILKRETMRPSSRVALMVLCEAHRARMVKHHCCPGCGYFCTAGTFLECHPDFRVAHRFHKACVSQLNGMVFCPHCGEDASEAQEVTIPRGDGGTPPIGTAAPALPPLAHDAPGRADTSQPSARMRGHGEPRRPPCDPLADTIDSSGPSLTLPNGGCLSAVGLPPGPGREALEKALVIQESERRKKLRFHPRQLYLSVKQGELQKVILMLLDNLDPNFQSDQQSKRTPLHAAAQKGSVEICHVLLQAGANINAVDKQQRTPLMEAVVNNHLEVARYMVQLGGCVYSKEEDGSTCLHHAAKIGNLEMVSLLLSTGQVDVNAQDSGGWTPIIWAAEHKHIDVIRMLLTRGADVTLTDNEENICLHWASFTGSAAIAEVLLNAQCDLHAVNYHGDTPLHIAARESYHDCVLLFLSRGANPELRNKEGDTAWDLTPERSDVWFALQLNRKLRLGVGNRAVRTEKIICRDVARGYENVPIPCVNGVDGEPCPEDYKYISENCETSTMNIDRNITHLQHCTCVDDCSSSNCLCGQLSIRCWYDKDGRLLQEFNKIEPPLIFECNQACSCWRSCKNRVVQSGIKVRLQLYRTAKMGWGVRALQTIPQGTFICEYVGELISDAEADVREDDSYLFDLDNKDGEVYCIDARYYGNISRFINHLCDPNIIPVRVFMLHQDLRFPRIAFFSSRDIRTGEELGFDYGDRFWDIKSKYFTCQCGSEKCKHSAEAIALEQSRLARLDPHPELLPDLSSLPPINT
Assay: Flow cytometry of H3K9me2 in spinal cord neuronal nuclei of EAE mice
Type: in vivo
Settings: EAE animals, 5 mg kg-1 UNC0642

COc1cc2c(NC3CCN(C(C)C)CC3)nc(N3CCC(F)(F)CC3)nc2cc1OCCCN1CCCC1 [UNC0642, 2-(4,4-difluoropiperidin-1-yl)-6-methoxy-N-[1-(propan-2-yl)piperidin-4-yl]-7-[3-(pyrrolidin-1-yl)propoxy]quinazolin-4-amine]
H3K9me2 levels in neuronal nuclei: complete normalization of H3K9me2 levels
